Measurements reported in patent publication US20210207064A1, “COMPOUND FOR RESTORING CONTAMINATED SOIL OR CONTAMINATED WATER” (FNG RESEARCH CO., LTD., priority 2018, published 2021).

Key:
[1] = Heavy metal removal ability test in contaminated soil (ICP-MS), arsenic; conditions: for Arsenic (As) Adsorption amount: contaminated soil; for Arsenic (As) Adsorption rate: relative to EDTA control
Summary of the method: (§1)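 Sieved soil spiked with aqueous heavy metal, mixed 5 min with 3 ml of test solution, then extracted with 50 ml distilled water (20 min stirring, 1 h settling). Supernatant metal measured by ICP-MS; adsorption rate (%) expressed relative to control.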

[2] = Heavy metal removal ability test in contaminated soil (ICP-MS), cadmium; conditions: for Cadmium (Cd) Adsorption amount: contaminated soil; for Cadmium (Cd) Adsorption rate: relative to EDTA control
Summary of the method: as §1

[3] = Heavy metal removal ability test in contaminated soil (ICP-MS), nickel; conditions: for Nickel (Ni) Adsorption amount: contaminated soil; for Nickel (Ni) Adsorption rate: relative to EDTA control
Summary of the method: as §1

[4] = system: human skin; assay: Skin irritation test of active ingredient (patch method, CTFA guidelines); type: in vivo; conditions: 24 h patch; for Test result (number of subject) (+) / Test result (number of subject) (++) / Test result (number of subject) (±) / Test result (number of subject) (−): 20 people; for Test result (number of subject) (+): (+) apparent reddening; for Test result (number of subject) (++): (++) more reddened and swollen; for Test result (number of subject) (±): (±) slightly reddish; for Test result (number of subject) (−): (−) no erythema
[5] = Formaldehyde (formalin) removing ability test (GC); conditions: 2.0% formaldehyde solution, 3 molar equivalents of compound, room temperature; for Formaldehyde GC Area, 30 min: after 30 min; for Formaldehyde GC Area, 180 min: after 180 min; for Formaldehyde GC Area, Initial: initial state
[6] = Heavy metal removal ability test in contaminated soil around a factory (WAK-Me test kit); conditions: 1.0 wt % aqueous solution, colour comparison test kit
Procedure: The contaminated soil around the factory in the industrial complex was collected, pulverized, and meshed to prepare fine particles of soil samples.
Each 3 ml of aqueous solutions for restoring soil was added to soil samples and mixed for 5 minutes.

SMILES	Arsenic (As) Adsorption amount ([1]; content 0.5% aqueous solution) [ppm]	Arsenic (As) Adsorption rate ([1]; content 0.5%) [%]	Arsenic (As) Adsorption amount ([1]; content 1.0% aqueous solution) [ppm]	Arsenic (As) Adsorption rate ([1]; content 1.0%) [%]	Arsenic (As) Adsorption amount ([1]; content 2.0% aqueous solution) [ppm]	Arsenic (As) Adsorption rate ([1]; content 2.0%) [%]	Cadmium (Cd) Adsorption amount ([2]; content 0.5% aqueous solution) [ppm]	Cadmium (Cd) Adsorption rate ([2]; content 0.5%) [%]	Cadmium (Cd) Adsorption amount ([2]; content 1.0% aqueous solution) [ppm]	Cadmium (Cd) Adsorption rate ([2]; content 1.0%) [%]	Cadmium (Cd) Adsorption amount ([2]; content 2.0% aqueous solution) [ppm]	Cadmium (Cd) Adsorption rate ([2]; content 2.0%) [%]	Nickel (Ni) Adsorption amount ([3]; content 0.5% aqueous solution) [ppm]	Nickel (Ni) Adsorption rate ([3]; content 0.5%) [%]	Nickel (Ni) Adsorption amount ([3]; content 1.0% aqueous solution) [ppm]	Nickel (Ni) Adsorption rate ([3]; content 1.0%) [%]	Nickel (Ni) Adsorption amount ([3]; content 2.0% aqueous solution) [ppm]	Nickel (Ni) Adsorption rate ([3]; content 2.0%) [%]	Test result (number of subject) (+) ([4]; content 0.1 wt %)	Test result (number of subject) (++) ([4]; content 0.1 wt %)	also measured
O=C(O)c1cncc(N2CCCN(c3cncc(C(=O)O)c3)CCN(c3cncc(C(=O)O)c3)CCCN(c3cncc(C(=O)O)c3)CC2)c1 [Embodiment 11, 5,5′,5″,5′″-(1,4,8,11-tetraazacyclotetradecane-1,4,8,11-tetrayl)tetranicotinic Acid]	38	152	41	164	47	188	59	144	66	161	70	171	79	161	88	180	93	190	0	0	Test result (number of subject) (±) ([4]; content 0.1 wt %): 0; Test result (number of subject) (−) ([4]; content 0.1 wt %): 20; Degree of irritation ([4]; content 0.1 wt %): 0; Grade for skin irritation ([4]; content 0.1 wt %): I (Degree of irritation 0-0.1: Grade I (unstimulated)); Test result (number of subject) (+) ([4]; content 0.5 wt %): 0; Test result (number of subject) (++) ([4]; content 0.5 wt %): 0; Test result (number of subject) (±) ([4]; content 0.5 wt %): 0; Test result (number of subject) (−) ([4]; content 0.5 wt %): 20; Degree of irritation ([4]; content 0.5 wt %): 0; Grade for skin irritation ([4]; content 0.5 wt %): I (Degree of irritation 0-0.1: Grade I (unstimulated)); Test result (number of subject) (+) ([4]; content 1.0 wt %): 0; Test result (number of subject) (++) ([4]; content 1.0 wt %): 0; Test result (number of subject) (±) ([4]; content 1.0 wt %): 2; Test result (number of subject) (−) ([4]; content 1.0 wt %): 18; Degree of irritation ([4]; content 1.0 wt %): 0.10; Grade for skin irritation ([4]; content 1.0 wt %): I (Degree of irritation 0-0.1: Grade I (unstimulated)); Formaldehyde GC Area, 30 min [5]: 0.174 mAU*min; Formaldehyde GC Area, 180 min [5]: 0 mAU*min; Formaldehyde GC Area, Initial [5]: 0.305 mAU*min; Total amount (Cu, Zn, Mn, Ni, Cd) [6]: ≤5 ppm
O=C(O)c1ccc(N2CCCN(c3ccc(C(=O)O)o3)CCN(c3ccc(C(=O)O)o3)CCCN(c3ccc(C(=O)O)o3)CC2)o1 [Embodiment 12, 5,5′,5″,5′″-(1,4,8,11-tetraazacyclotetradecane-1,4,8,11-tetrayl)tetrakis(furan-2-carboxylic Acid)]	41	164	43	172	46	184	61	149	67	163	72	176	77	157	84	171	89	182	0	0	Test result (number of subject) (±) ([4]; content 0.1 wt %): 0; Test result (number of subject) (−) ([4]; content 0.1 wt %): 20; Degree of irritation ([4]; content 0.1 wt %): 0; Grade for skin irritation ([4]; content 0.1 wt %): I (Degree of irritation 0-0.1: Grade I (unstimulated)); Test result (number of subject) (+) ([4]; content 0.5 wt %): 0; Test result (number of subject) (++) ([4]; content 0.5 wt %): 0; Test result (number of subject) (±) ([4]; content 0.5 wt %): 0; Test result (number of subject) (−) ([4]; content 0.5 wt %): 20; Degree of irritation ([4]; content 0.5 wt %): 0; Grade for skin irritation ([4]; content 0.5 wt %): I (Degree of irritation 0-0.1: Grade I (unstimulated)); Test result (number of subject) (+) ([4]; content 1.0 wt %): 0; Test result (number of subject) (++) ([4]; content 1.0 wt %): 0; Test result (number of subject) (±) ([4]; content 1.0 wt %): 1; Test result (number of subject) (−) ([4]; content 1.0 wt %): 19; Degree of irritation ([4]; content 1.0 wt %): 0.05; Grade for skin irritation ([4]; content 1.0 wt %): I (Degree of irritation 0-0.1: Grade I (unstimulated)); Formaldehyde GC Area, 30 min [5]: 0.170 mAU*min; Formaldehyde GC Area, 180 min [5]: 0 mAU*min; Formaldehyde GC Area, Initial [5]: 0.305 mAU*min; Total amount (Cu, Zn, Mn, Ni, Cd) [6]: ≤5 ppm
